Experimental data: patent US20230292755A1, “USE OF A GLYCINE BETAINE DERIVATIVE AS A PEDICULICIDAL AGENT” (priority 2020, published 2023)

Tested on: lice (Pediculus humanus capitis)
Test: Efficacy test: aqueous solutions sprayed into boxes of lice, percentage of mortality evaluated (ECHA guidance)
Assay type: in vivo
Conditions: sprayed aqueous solution at 3% by weight of dry matter; for Mortality rate (%): mean of 4 boxes of 25 lice
Protocol: The surfactant compositions prepared as described in examples 1 and 2 above were tested following the recommendations of the ECHA relating to the evaluation of the efficacy of biocidal products (Guidance on the Biocidal Products Regulation Volume II Efficacy—Assessment and Evaluation (Parts B+C), Version 3.0 April 2018).
These compositions were thus each sprayed, in the form of aqueous solutions at 3% by weight of dry matter, into 4 boxes each including 25 lice (Pediculus humanus capitis), then the percentage of mortality was evaluated after 5, 10 and 15 min. The mean of the results obtained in the 4 boxes was calculated.
The test presented in example 3 was reproduced using one and the same concentration of different cationic surfactants instead of the glycine betaine derivatives according to the invention.

Molecule	Mortality rate (%) (after 5 min)	Mortality rate (%) (after 10 min)	Mortality rate (%) (after 15 min)	time required to eliminate 100% of the lice [min]
CCCCCCCCCCCCCCCC[N+](C)(C)C.[Cl-] [Cetrimonium chloride]	79	94	100	–
Benzalkonium chloride	70	80	82	60
CCCCCCCCCCCC[N+](C)(C)C.[Cl-] [Dodecyltrimethylammonium chloride]	49	78	91	30
